Results taken from patent US11091429B2, “Organic compounds” (Givaudan SA, priority 2012, dated 2021).
Entries after “also recorded” stand apart in the source; their conditions may differ.

What was measured:
[1] = Tasting on fried potato snack product; conditions: 35% fat, cheese seasoning
Method: (§1) The following formulations were prepared and tasted by trained panelists.
A snack product consisting of a fried potato base, containing 35% fat and flavored with cheese seasoning containing salt, MSG, dairy, organic acids, sugars, and a flavour formulation. The following compounds were added to the snack product at the indicated levels and the tasting results are reported: […]

[2] = Tasting in Activa strawberry yoghurt; conditions: 2 ppm, 13.5% sugar, 3.2% fat
Excerpt: Activa Strawberry Yoghurt
In a Full fat, Activa strawberry flavoured yoghurt containing 13.5% sugar, 3.2% fat C18:2-gaba and C18:0-leu at 2 ppm

[3] = Tasting in vanilla flavoured milk 3.0% fat; conditions: 2 ppm, 4% sugar, vanillin 10 ppm, vanilla extract 0.03%
Method: Vanilla Flavoured Milk 3.0% Fat
In a 3% fat milk drink, sweetened with 4% sucrose by weight, flavoured with Vaniline @ 10 ppm and a Vanilla extract @ 0.03% C18:2-gaba, C18:1-ACOA and C18:1-glu were added at 0.5 or 2 ppm.
Samples were evaluated by expert tasters. Tasters were asked to describe the samples focusing on authentic taste, mouthfeel, fullness, salivation, sweetness, juiciness, richness, long lastingness and fattiness.
Base: Milk 3% fat, 4% sugar, vanillin 10 ppm, vanilla extract 0.03%

[4] = Test in peach flavoured drink; conditions: 1 ppm; water, 8% sugar, 0.1% citric acid, peach flavour 0.05%
Method: (§2) Samples were prepared and evaluated by expert tasters. Tasters were asked to describe the samples focusing on authentic taste, mouthfeel, fullness, salty-ness, salivation, umami, sweetness, juiciness, richness, long lastingness and fattiness.
Test in Peach Flavoured Drink:
Base is water, 8% sugar, 0.1% citric acid, and proprietary peach flavour at 0.05%
(§3) Samples were evaluated by expert tasters. Tasters were asked to describe the samples focusing on authentic taste, mouthfeel, fullness, salty-ness, salivation, umami, sweetness, juiciness, richness, long lastingness and fattiness.
Comparison in a Peach Drink
Base is water, 8% sugar, 0.1% citric acid, proprietary peach flavour at 0.05%
Samples were evaluated by expert tasters. Tasters were asked to describe the samples focusing on authentic taste, mouthfeel, fullness, salivation, salty-ness, umami, sweetness, juiciness, richness, long lastingness and fattiness.

[5] = Tasting in beef bouillon base; conditions: 0.5 PPM in beef bouillon base 1.0% salt, 0.5% fat
Method: as §1
Beef Bouillon base 1.0% salt, 0.5% fat

[6] = Tasting in soy sauce
Method: as §1
(§4) Salt level pure product between 5-40%
(§5) Salt level in application 0.3-1.0%
as §2
Test on Kikkoman Soy Sauce Low Salt
Base is Kikkoman soy sauce
(§6) Samples were prepared and evaluated by expert tasters. Tasters were asked to describe the samples focusing on authentic taste, mouthfeel, fullness, salivation, salty-ness, umami, sweetness, juiciness, richness, long lastingness and fattiness.

[7] = Tasting in vanilla milk 0.15% fat; conditions: 2 ppm, 4% sucrose, Vaniline 10 ppm + vanilla extract 0.03%
Procedure, shortened: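 Expert panel tasted samples in 0.15% fat milk sweetened with 4% sucrose and flavoured with vaniline at 10 ppm plus vanilla extract at 0.03%. Descriptors covered authentic taste, mouthfeel, fullness, saltiness, salivation, umami, sweetness, juiciness, richness, long-lastingness and fattiness.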

[8] = Test on Baileys cream liqueur; conditions: 1 ppm, 17% alcohol
Method: Test on Baileys Cream Liqueur:
In Baileys cream liqueur (Market Product) containing 17% alcohol, carbohydrates 25% and 13% fat C18:2-gaba was added at 1 ppm.
Samples were evaluated by expert tasters. Tasters were asked to describe the samples focusing on authentic taste, alcohol impact, mouthfeel, fullness, salivation, sweetness, bitterness, richness, long lastingness and fattiness.
Base is Baileys cream liqueur
as §3
Base: Baileys cream liqueur (containing 17% alcohol, carbohydrates 25% and 13% fat)

[9] = Test on menthol fondant; conditions: 2 ppm; fondant 65%, sugar syrup 34%, menthol flavour 1%
Method: as §2
Test on Menthol Fondant (1%1
Base is Fondant 65%, sugar syrup 34% and a proprietary menthol flavour at 1%

[10] = Tasting in mango still beverage, 6% clear mango juice; conditions: 1 ppm; 6% clear mango juice (full juice)
Method: Mango Flavoured Still Beverage Containing Different Levels of Juice,
In a Mango flavoured still beverage, sweetened with 8% sucrose and containing 0.1% citric acid and 1%, 4% and 6% clear mango juice flavoured with a proprietary Mango flavour @ 0.05%, C18:2-gaba and C18:2-Pro were added, as such (separate) and in combination.
All samples were evaluated by expert tasters. Tasters were asked to describe the samples focusing on authentic taste, juicy mouthfeel, enhancement, richness, juiciness, long lastingness, salivation, sweetness.
In a Mango-flavoured still beverage, sweetened with 8% sucrose & containing 0.1% citric acid and 6% clear mango juice flavoured with Mango flavour@0.05%, C18:2-gaba and C18:2-Pro were added, as such (separate) and in combination.
Base is water, 8% sucrose, 0.1% citric acid, 6% clear mango juice (full juice), flavoured with Mango flavor, dosed at 0.05%.

[11] = Test on Tang; conditions: 0.5 ppm, orange flavoured Tang
Method: In an orange flavoured Tang powdered soft drink (market product) sweetened with sucrose plus high intensity sweetener and containing citric acid, C18:2-gaba and C18:2-pro were tested.
All samples were evaluated by expert tasters. Tasters were asked to describe the samples focusing on authentic taste, mouthfeel & body, enhancement, richness, juiciness, long lastingness, salivation, sweetness, masking off notes of high intensity sweetener
Base is Orange Flavoured Tang

[12] = Tasting in fish sauce
Method: as §1, §4, §5, §6

[13] = Tasting in strawberry drink; conditions: 2 ppm; 7% sucrose, 0.1% citric acid, strawberry flavour 0.015%
Procedure, shortened: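 Expert tasters profiled samples for authentic taste, mouthfeel, fullness, saltiness, salivation, umami, sweetness, juiciness, richness, long-lastingness and fattiness. Base: water with 7% sucrose, 0.1% citric acid and a proprietary strawberry flavour at 0.015%.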

[14] = Tasting in cheese sauce; conditions: 0.5 PPM in cheese sauce 5% fat 1.6% salt
Method: as §1
Cheese sauce: 5% fat 1.6% salt
as §6
Cheese Sauce: 5% Fat 1.6% Salt

CCCCC/C=C\C/C=C\CCCCCCCC(=O)NCCCC(=O)O [C18:2-gaba]
tasting result ([1]; 0.5 ppm on fried potato snack): increased dairy, cheesy | tasting result ([1]; 1 ppm on fried potato snack): Fatty full, cheesy, cheese crust, long lasting | tasting result [2]: very creamy, full and fresh strawberry | tasting result [3]: beany, fatty, authentic, sweet | tasting result [4]: fruity peach, long lasting, juicy and fatty skin like very authentic | tasting result [5]: Strong, Salty, Umami, mouthfeel | tasting result ([6]; 0.5 ppm in 1% diluted salt reduced kikoman soy sauce (9% salt)): stronger, more umami, long lasting, richer | tasting result ([6]; 0.5 ppm in Kikkoman soy sauce low salt): much more salty, sweet and long lasting | tasting result ([6]; 0.5 ppm in pure salt reduced kikoman soy sauce (9% salt)): strong in body and mouthfeel, and more salty | tasting result [7]: fatty, long lasting authentic vanilla, vanilla bean taste is enhanced | tasting result [8]: strongly enhanced alcohol effect, more cocoa, very creamy and long lasting aftertaste | tasting result [9]: increased menthol impact, stronger cooling more sweet, long lasting, fresh | tasting result [10]: fatty skin-like, very thick juicy, authentic mango, long lasting mango taste, rich | tasting result [11]: enhances sweet juicy orange notes, enhanced mouthfeel; also recorded: the off-notes of the high intensity sweetener were suppressed | tasting result ([12]; 0.5 ppm in 1% diluted fish sauce (0.27% salt)): stronger in umami, longer lasting and richer | tasting result ([12]; 0.5 ppm in pure fish sauce (27% salt)): strong in body and mouthfeel, more salty, richer with more rounded fish notes | tasting result [13]: fatty mouthfeel, creamy strawberry, fruity and juicy | tasting result [14]: Full, Salty, cheese bite expanding
